Results reported in patent US10405547B2, “Substituted cyclic amides as herbicides” (FMC Corporation, priority 2015, dated 2019).

Key:
Assay type in all cases: in vivo
[1] = tested on: barnyardgrass (Echinochloa crus-galli); assay: Test A preemergence, barnyardgrass; details: 0 to 100 scale (0 no effect, 100 complete control)
Excerpt: (§1) Test A Seeds of plant species selected from barnyardgrass (Echinochloa crus-galli), kochia (Kochia scoparia), ragweed (common ragweed, Ambrosia elatior), ryegrass, Italian (Lolium multiflorum), foxtail, giant (Setaria faberii), and pigweed (Amaranthus retroflexus), were planted into a blend of loam soil and sand and treated preemergence with a directed soil spray using test chemicals formulated in a non-phytotoxic solvent mixture which included a surfactant.
(§2) At the same time, plants selected from these weed species and also blackgrass (Alopecurus myosuroides), galium (catchweed bedstraw, Galium aparine), wheat (Triticum aestivum), and corn (Zea mays) were planted in pots containing the same blend of loam soil and sand and treated with postemergence applications of test chemicals formulated in the same manner. Plants ranged in height from 2 to 10 cm and were in the one- to two-leaf stage for the postemergence treatment. Treated plants and untreated controls were maintained in a greenhouse for approximately 10 days, after which time all treated plants were compared to untreated controls and visually evaluated for injury. Plant response ratings, summarized in Table A, are based on a 0 to 100 scale where 0 is no effect and 100 is complete control. A dash (-) response means no test result.

kochia (Kochia scoparia) [2] = assay: Test A preemergence, kochia; details: 0 to 100 scale (0 no effect, 100 complete control)
Excerpt: as §1, §2

[3] = tested on: ragweed (common ragweed, Ambrosia elatior); assay: Test A preemergence, ragweed; details: 0 to 100 scale (0 no effect, 100 complete control)
Excerpt: as §1, §2

[4] = tested on: ryegrass, Italian (Lolium multiflorum); assay: Test A preemergence, Italian ryegrass; details: 0 to 100 scale (0 no effect, 100 complete control)
Excerpt: as §1, §2

[5] = tested on: foxtail, giant (Setaria faberii); assay: Test A preemergence, giant foxtail; details: 0 to 100 scale (0 no effect, 100 complete control)
Excerpt: as §1, §2

[6] = tested on: pigweed (Amaranthus retroflexus); assay: Test A preemergence, pigweed; details: 0 to 100 scale (0 no effect, 100 complete control)
Excerpt: as §1, §2

[7] = tested on: barnyardgrass (Echinochloa crus-galli); assay: Test A postemergence, barnyardgrass; details: visual injury, 0 to 100 scale (0 no effect, 100 complete control), approximately 10 days
Excerpt: as §1, §2

kochia (Kochia scoparia) [8] = assay: Test A postemergence, kochia; details: visual injury, 0 to 100 scale (0 no effect, 100 complete control), approximately 10 days
Excerpt: as §1, §2

[9] = tested on: ragweed (common ragweed, Ambrosia elatior); assay: Test A postemergence, ragweed; details: visual injury, 0 to 100 scale (0 no effect, 100 complete control), approximately 10 days
Excerpt: as §1, §2

[10] = tested on: ryegrass, Italian (Lolium multiflorum); assay: Test A postemergence, Italian ryegrass; details: visual injury, 0 to 100 scale (0 no effect, 100 complete control), approximately 10 days
Excerpt: as §1, §2

[11] = tested on: foxtail, giant (Setaria faberii); assay: Test A postemergence, giant foxtail; details: visual injury, 0 to 100 scale (0 no effect, 100 complete control), approximately 10 days
Excerpt: as §1, §2

[12] = tested on: pigweed (Amaranthus retroflexus); assay: Test A postemergence, pigweed; details: visual injury, 0 to 100 scale (0 no effect, 100 complete control), approximately 10 days
Excerpt: as §1, §2

[13] = tested on: blackgrass (Alopecurus myosuroides); assay: Test A postemergence, blackgrass; details: visual injury, 0 to 100 scale (0 no effect, 100 complete control), approximately 10 days
Excerpt: as §1, §2

[14] = tested on: galium (catchweed bedstraw, Galium aparine); assay: Test A postemergence, galium; details: visual injury, 0 to 100 scale (0 no effect, 100 complete control), approximately 10 days
Excerpt: as §1, §2

[15] = tested on: wheat (Triticum aestivum); assay: Test A postemergence, wheat; details: visual injury, 0 to 100 scale (0 no effect, 100 complete control), approximately 10 days
Excerpt: as §1, §2

corn (Zea mays) = assay: Test A postemergence, corn; details: visual injury, 0 to 100 scale (0 no effect, 100 complete control), approximately 10 days
Excerpt: as §1, §2

SMILES	Plant response rating, Barnyardgrass ([1]; 125 g ai/ha)	Plant response rating, Barnyardgrass ([1]; 500 g ai/ha)	Plant response rating, Kochia (kochia (Kochia scoparia) [2]; 125 g ai/ha)	Plant response rating, Kochia (kochia (Kochia scoparia) [2]; 500 g ai/ha)	Plant response rating, Ragweed ([3]; 125 g ai/ha)	Plant response rating, Ragweed ([3]; 500 g ai/ha)	Plant response rating, Ryegrass, Italian ([4]; 125 g ai/ha)	Plant response rating, Ryegrass, Italian ([4]; 500 g ai/ha)	Plant response rating, Foxtail, Giant ([5]; 125 g ai/ha)	Plant response rating, Foxtail, Giant ([5]; 500 g ai/ha)	Plant response rating, Pigweed ([6]; 125 g ai/ha)	Plant response rating, Pigweed ([6]; 500 g ai/ha)	Plant response rating, Barnyardgrass ([7]; 125 g ai/ha)	Plant response rating, Barnyardgrass ([7]; 500 g ai/ha)	Plant response rating, Kochia (kochia (Kochia scoparia) [8]; 125 g ai/ha)	Plant response rating, Kochia (kochia (Kochia scoparia) [8]; 500 g ai/ha)	Plant response rating, Ragweed ([9]; 125 g ai/ha)	Plant response rating, Ragweed ([9]; 500 g ai/ha)	Plant response rating, Ryegrass, Italian ([10]; 125 g ai/ha)	Plant response rating, Ryegrass, Italian ([10]; 500 g ai/ha)	other results
O=C1NCC(c2cccc(Cn3cccn3)c2)C1C(=O)Nc1ccccc1F (stereo not shown) [Compound 27]	0	20	0	0	0	0	0	0	20	30	0	0	40	70	0	0	0	0	0	0	Plant response rating, Foxtail, Giant ([11]; 125 g ai/ha): 40; Plant response rating, Foxtail, Giant ([11]; 500 g ai/ha): 50; Plant response rating, Pigweed ([12]; 125 g ai/ha): 0; Plant response rating, Pigweed ([12]; 500 g ai/ha): 0; Plant response rating, Blackgrass ([13]; 125 g ai/ha): 0; Plant response rating, Blackgrass ([13]; 500 g ai/ha): 0; Plant response rating, Galium ([14]; 125 g ai/ha): 0; Plant response rating, Galium ([14]; 500 g ai/ha): 0; Plant response rating, Wheat ([15]; 125 g ai/ha): 0; Plant response rating, Wheat ([15]; 500 g ai/ha): 0; Plant response rating, Corn (corn (Zea mays); 125 g ai/ha): 0; Plant response rating, Corn (corn (Zea mays); 500 g ai/ha): 0
O=C1NCC(c2cccc(Cn3cccn3)c2)C1C(=O)Nc1ccc(F)cc1F (stereo not shown) [Compound 28]	0	30	0	0	0	0	0	0	0	30	0	0	0	20	0	0	0	0	0	0	Plant response rating, Foxtail, Giant ([11]; 125 g ai/ha): 0; Plant response rating, Foxtail, Giant ([11]; 500 g ai/ha): 20; Plant response rating, Pigweed ([12]; 125 g ai/ha): 0; Plant response rating, Pigweed ([12]; 500 g ai/ha): 0; Plant response rating, Blackgrass ([13]; 125 g ai/ha): 0; Plant response rating, Blackgrass ([13]; 500 g ai/ha): 0; Plant response rating, Galium ([14]; 125 g ai/ha): 0; Plant response rating, Galium ([14]; 500 g ai/ha): 0; Plant response rating, Wheat ([15]; 125 g ai/ha): 0; Plant response rating, Wheat ([15]; 500 g ai/ha): 0; Plant response rating, Corn (corn (Zea mays); 125 g ai/ha): 0; Plant response rating, Corn (corn (Zea mays); 500 g ai/ha): 0
O=C1NCC(c2cccc(Cn3cccn3)c2)C1C(=O)Nc1ccccc1Cl (stereo not shown) [Compound 29]	0	40	0	0	0	0	0	0	0	40	0	0	0	20	0	0	0	0	0	0	Plant response rating, Foxtail, Giant ([11]; 125 g ai/ha): 0; Plant response rating, Foxtail, Giant ([11]; 500 g ai/ha): 20; Plant response rating, Pigweed ([12]; 125 g ai/ha): 0; Plant response rating, Pigweed ([12]; 500 g ai/ha): 0; Plant response rating, Blackgrass ([13]; 125 g ai/ha): 0; Plant response rating, Blackgrass ([13]; 500 g ai/ha): 0; Plant response rating, Galium ([14]; 125 g ai/ha): 0; Plant response rating, Galium ([14]; 500 g ai/ha): 0; Plant response rating, Wheat ([15]; 125 g ai/ha): 0; Plant response rating, Wheat ([15]; 500 g ai/ha): 0; Plant response rating, Corn (corn (Zea mays); 125 g ai/ha): 0; Plant response rating, Corn (corn (Zea mays); 500 g ai/ha): 0
O=C1NCC(c2cccc(Cn3cccn3)c2)C1C(=O)Nc1cccc(F)c1F (stereo not shown) [Compound 30]	0	50	0	0	0	0	0	0	20	90	0	0	20	60	0	0	0	0	0	0	Plant response rating, Foxtail, Giant ([11]; 125 g ai/ha): 30; Plant response rating, Foxtail, Giant ([11]; 500 g ai/ha): 50; Plant response rating, Pigweed ([12]; 125 g ai/ha): 0; Plant response rating, Pigweed ([12]; 500 g ai/ha): 0; Plant response rating, Blackgrass ([13]; 125 g ai/ha): 0; Plant response rating, Blackgrass ([13]; 500 g ai/ha): 0; Plant response rating, Galium ([14]; 125 g ai/ha): 0; Plant response rating, Galium ([14]; 500 g ai/ha): 0; Plant response rating, Wheat ([15]; 125 g ai/ha): 0; Plant response rating, Wheat ([15]; 500 g ai/ha): 0; Plant response rating, Corn (corn (Zea mays); 125 g ai/ha): 0; Plant response rating, Corn (corn (Zea mays); 500 g ai/ha): 0
O=C1NCC(c2cccc(Cn3cncn3)c2)C1C(=O)Nc1ccccc1F (stereo not shown) [Compound 31]	0	0	0	0	0	0	0	0	0	0	0	0	0	0	0	0	0	0	0	0	Plant response rating, Foxtail, Giant ([11]; 125 g ai/ha): 0; Plant response rating, Foxtail, Giant ([11]; 500 g ai/ha): 0; Plant response rating, Pigweed ([12]; 125 g ai/ha): 0; Plant response rating, Pigweed ([12]; 500 g ai/ha): 0; Plant response rating, Blackgrass ([13]; 125 g ai/ha): 0; Plant response rating, Blackgrass ([13]; 500 g ai/ha): 0; Plant response rating, Galium ([14]; 125 g ai/ha): 0; Plant response rating, Galium ([14]; 500 g ai/ha): 20; Plant response rating, Wheat ([15]; 125 g ai/ha): 0; Plant response rating, Wheat ([15]; 500 g ai/ha): 0; Plant response rating, Corn (corn (Zea mays); 125 g ai/ha): 0; Plant response rating, Corn (corn (Zea mays); 500 g ai/ha): 0
